Laboratory results: patent US9161990B2, “Hydrochloride salts of a glycopeptide-cephalosporin antbiotic compond” (THERAVANCE BIOPHARMA ANTIBIOTICS IP, LLC, priority 2013, dated 2015)
Counter-ions that a name gives are not always drawn.

Columns and labels:
[1] = Storage stability of lyophilized hydrochloride salts (purity by HPLC); type: physicochemical
Protocol: (§1) All solvents were HPLC grade and were purchased from Honeywell Burdick & Jackson (Muskegon, Mich. 49442). Phosphoric acid (85% w/w) and sodium dihydrogen phosphate were HPLC grade and were purchased from Fluka (Sigma-Aldrich, St. Louis, Mo. 63103). All reagents were used without further purification.
(§2) Test samples were filtered through a 0.2 μm polyvinylidene fluoride (PVDF) filter before analysis and the first 1 mL was discarded.
(§3) Test sample purity was determined based on the integrated peak area (area-under-the-curve or AUC) for the compound as a percentage of all integrated peaks. The concentration (assay value) of the compound in a test sample was determined by comparison with a reference standard.
(§4) One rack was stored protected from light in a drawer at room temperature and the other rack was stored in a refrigerator at 2 to 8° C. A representative vial of each type of stability sample was analyzed by HPLC after storage for 1, 3, 6 and 12 months to determine purity.

[2] = Storage stability of hydrochloride salts in a lyophilized composition containing sucrose and glycine (purity by HPLC); type: physicochemical; conditions: Trihydrochloride; for Purity (HPLC area percent) / Δ (change in percent purity from time = 0): composition containing sucrose and glycine; for decrease in purity: formulated with sucrose and glycine, listed as trihydrochloride salt
Protocol: as §1, §2, §3, §4

[3] = refrigerated temperature (2 to 8° C.), 1 month, Trihydrochloride
[4] = refrigerated temperature (2 to 8° C.), 3 months, Trihydrochloride
[5] = refrigerated temperature (2 to 8° C.), 6 months, Trihydrochloride
[6] = refrigerated temperature (2 to 8° C.), 12 months, Trihydrochloride
[7] = room temperature, 1 month, Trihydrochloride
[8] = room temperature, 3 months, Trihydrochloride
[9] = room temperature, 6 months, Trihydrochloride
[10] = room temperature, 12 months, Trihydrochloride
[11] = refrigerated temperature (2 to 8° C.), 1 month
[12] = refrigerated temperature (2 to 8° C.), 6 months
[13] = refrigerated temperature (2 to 8° C.), 12 months

## CN[C@H](CC(C)C)C(=O)NC1C(=O)N[C@@H](CC(N)=O)C(=O)N[C@H]2C(=O)N[C@H]3C(=O)N[C@H](C(=O)N[C@H](C(=O)NCCCO/N=C(\C(=O)N[C@@H]4C(=O)N5C(C(=O)[O-])=C(C[n+]6ccccc6)CS[C@H]45)c4nc(N)sc4Cl)c4cc(O)cc(O)c4-c4cc3ccc4O)[C@H](O)c3ccc(c(Cl)c3)Oc3cc2cc(c3O[C@@H]2O[C@H](CO)[C@@H](O)[C@H](O)[C@H]2O[C@H]2C[C@](C)(N)[C@H](O)[C@H](C)O2)Oc2ccc(cc2Cl)[C@H]1O (stereo partly drawn) [Trihydrochloride, 26-[[[3-[[(Z)-[1-(2-Amino-5-chloro-4-thiazolyl)-2-[[(6R,7R)-2-carboxy-8-oxo-3-(pyridiniomethyl)-5-thia-1-azabicyclo[4.2.0]oct-2-en-7-yl]amino]-2-oxoethylidene]amino]oxy]propyl]amino]carbonyl]-26-decarboxyvancomycin Trihydrochloride, reference compound]
[1]; [3]
  Purity (HPLC area percent): 84.0%
  Δ (change in percent purity from time = 0): −0.5%
[1]; [4]
  Purity (HPLC area percent): 80.7%
  Δ (change in percent purity from time = 0): −3.8%
[1]; [5]
  Purity (HPLC area percent): 79.4%
  Δ (change in percent purity from time = 0): −5.1%
[1]; [6]
  Purity (HPLC area percent): 76.0%
  Δ (change in percent purity from time = 0): −8.6%
[1]; refrigerated temperature (2 to 8° C.), time 0 months, Trihydrochloride
  Purity (HPLC area percent): 84.5%
[1]; [7]
  Purity (HPLC area percent): 74.8%
  Δ (change in percent purity from time = 0): −9.7%
[1]; [8]
  Purity (HPLC area percent): 69.5%
  Δ (change in percent purity from time = 0): −15.0%
[1]; [9]
  Purity (HPLC area percent): 56.5%
  Δ (change in percent purity from time = 0): −28.0%
[1]; [10]
  Purity (HPLC area percent): 50.4%
  Δ (change in percent purity from time = 0): −34.2%
[1]; room temperature, time 0 months, Trihydrochloride
  Purity (HPLC area percent): 84.5%
[1]; stored at 2 to 8° C. for 12 months, listed as trihydrochloride salt, Trihydrochloride
  decrease in purity: 8.6%
[1]; stored at room temperature or at refrigerated temperature (about 2 to about 8° C.)
  decomposition on storage: decompose significantly
[2]; [11]
  Purity (HPLC area percent): 91.5%
  Δ (change in percent purity from time = 0): 0.2%
[2]; refrigerated temperature (2 to 8° C.), 3 months
  Δ (change in percent purity from time = 0): −0.5%
[2]; [12]
  Purity (HPLC area percent): 92.8%
  Δ (change in percent purity from time = 0): 1.5%
[2]; [13]
  Purity (HPLC area percent): 90.1%
  Δ (change in percent purity from time = 0): −1.2%
[2]; refrigerated temperature (2 to 8° C.), time 0 months
  Purity (HPLC area percent): 91.3%
[2]; room temperature, 1 month
  Purity (HPLC area percent): 89.2%
  Δ (change in percent purity from time = 0): −2.1%
[2]; room temperature, 3 months
  Purity (HPLC area percent): 84.4%
  Δ (change in percent purity from time = 0): −6.9%
[2]; room temperature, 6 months
  Purity (HPLC area percent): 82.5%
  Δ (change in percent purity from time = 0): −8.8%
[2]; room temperature, 12 months
  Purity (HPLC area percent): 65.0%
  Δ (change in percent purity from time = 0): −26.3%
[2]; room temperature, time 0 months
  Purity (HPLC area percent): 91.3%
[2]; stored at 2 to 8° C. for 12 months
  decrease in purity: 1.2%
[2]; stored at room temperature for 12 months
  decrease in purity: 26.3%
